According to patent US9000027B2, “Chk1 suppresses a caspase-2 apoptotic response to DNA damage that bypasses p53, bcl-2 and caspase-3” (Dana-Farber Cancer Institute, Inc., priority 2008, dated 2015):

Target: T1, Chk1 (Homo sapiens, UniProt O14757)
T1 sequence (O14757 1-476): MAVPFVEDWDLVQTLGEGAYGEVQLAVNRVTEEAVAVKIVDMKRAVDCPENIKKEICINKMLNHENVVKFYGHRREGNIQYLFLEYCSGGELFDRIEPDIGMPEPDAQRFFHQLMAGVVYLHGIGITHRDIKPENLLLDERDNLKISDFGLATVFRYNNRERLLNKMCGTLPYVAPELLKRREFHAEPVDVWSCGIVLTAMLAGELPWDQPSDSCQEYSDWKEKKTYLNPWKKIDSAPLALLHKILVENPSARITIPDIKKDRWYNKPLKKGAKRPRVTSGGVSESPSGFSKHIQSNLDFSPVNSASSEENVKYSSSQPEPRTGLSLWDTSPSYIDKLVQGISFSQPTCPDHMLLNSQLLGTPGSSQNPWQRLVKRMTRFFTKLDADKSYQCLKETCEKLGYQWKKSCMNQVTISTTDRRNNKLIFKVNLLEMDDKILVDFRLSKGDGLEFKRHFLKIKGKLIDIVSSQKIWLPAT
Experiment: Western blot of Chk1 activity (Cdc2 Tyr15 and CDC25C Ser216 phosphorylation) in irradiated HeLa cells
Type: cell-based
Parameters: endogenous in cells; host or cells: HeLa
Settings: 10 Gy
Method: Protein extract (5-60 μg) was added to 4× gel loading buffer and 10× denaturing solution (Invitrogen) in appropriate proportions, and samples were incubated at 70° C. for 10 min. Samples were run at 200V for 1 hr on a 4-12% Bis-tris gradient gel (Invitrogen). After electrophoresis, samples were transferred for 1.5 hr (350 mA) to a Nitrocellulose membrane (Millipore) using a submerged transfer apparatus (Bio-Rad). Membranes were then blocked with 5% milk in Tris-buffered saline with 0.1% tween (TBST) and probed overnight at 4° C. with the following antibodies: anti-zebrafish Chk1 (diluted 1:200), anti-zebrafish Chk2 (1:200), anti-P-Cdc2 (1:1000), anti-actin (1:2000), anti-human ATR (1:500) and Stressgen anti-human-caspase-3 (1:500) for zebrafish immunoblots; and anti-caspase-2 (1:200), Upstate anti-caspase-3 (1:500), anti-P-ATM (1:500), anti-ATM (1:500), Santa Cruz anti-human Chk1 (1:1000), Santa Cruz anti-human Chk2 (1:1000), anti-P-Chk1 (1:500), anti-P-Chk2 (1:500), anti-P-H2A.X (1:2000), anti-P-cdc25C (1:1000), anti-P-HSP27 (1:1000), anti-HSP27 (1:1000), anti-P-Cdc2 (1:1000), anti-p53 (1:1000) and anti-GAPDH (1:5000) for immunoblots of human tumor cell lysates. Detailed references for all primary antibodies can be found in the ‘Antibodies’ section elsewhere herein.

Cn1c2ccccc2c2c3c(c4c5ccccc5n(CCC#N)c4c21)CNC3=O [Gö6976]
Chk1 inhibition (1 μM): potent Chk1 inhibition
phosphorylation of Chk1 readouts CDC2 and CDC25C (increasing concentrations, 24 hpIR): inhibited the phosphorylation of CDC2 and CDC25C
